Activity calls are given as the source filed them. The calls are words filed in the database; no cut-off is given here.
What was measured:
[1] = test system: HeLa; experiment: Cytotoxicity against human HeLa cells after 48 hrs by MTT assay; format: functional, cell-based
[2] = test system: HepG2; experiment: Cytotoxicity against human HepG2 cells after 48 hrs by MTT assay; format: functional, cell-based; settings: HepG2, 48 h
[3] = test system: DU-145; experiment: Cytotoxicity against human DU145 cells after 48 hrs by MTT assay; format: functional, cell-based; settings: DU-145, 48 h
[4] = test system: A549; experiment: Cytotoxicity against human A549 cells after 48 hrs by MTT assay; format: functional, cell-based; settings: A549, 48 h
[5] = test system: DU-145; experiment: Cytotoxicity against human DU145 cells assessed as inhibition of colony formation at 5 uM after 3 days by microscopy; format: functional, cell-based
[6] = molecular target: T1, Tubulin (Homo sapiens) (UniProt P68371+Q9H4B7+P0DPH7+P68366+Q13509+Q71U36+P04350+Q3ZCM7+P07437+P68363+Q9BQE3+Q6PEY2+Q13885+Q9BVA1+Q9BUF5); experiment: Inhibition of tubulin polymerization (unknown origin) at 5 uM measured every min for 1 hr by fluorescence-based assay; format: protein-complex assay; parameters: scale not given: the % may be the effect or the level left
[7] = test system: MCF7; experiment: Cytotoxicity against human MCF7 cells after 48 hrs by MTT assay; format: functional, cell-based; settings: MCF7, 48 h
[8] = test system: DU-145; experiment: Induction of apoptosis in human DU145 cells assessed as nuclear fragmentation at 2 uM after 24 hrs by Hoechst 33342 staining based confocal microscopy; format: functional, cell-based
[9] = test system: DU-145; experiment: Cytotoxicity against human DU145 cells assessed as inhibition of colony formation at 2.5 uM after 3 days by microscopy; format: functional, cell-based
[10] = test system: DU-145; experiment: Cell cycle arrest in human DU145 cells assessed as accumulation at G0/G1 phase at 2 uM after 48 hrs by propidium iodide staining-based flow cytometric analysis (reference value: 78.96%); format: functional
[11] = molecular target: T1, Tubulin (Homo sapiens); experiment: Inhibition of tubulin polymerization in human DU145 cells assessed as reduction of Akt phosphorylation at Ser473 at 2 to 5 uM after 48 hrs by Western blotting analysis; format: cell-based; settings: DU-145
[12] = test system: DU-145; experiment: Cell cycle arrest in human DU145 cells assessed as accumulation at S phase at 2 uM after 48 hrs by propidium iodide staining-based flow cytometric analysis (reference value: 5.88%); format: functional
[13] = test system: DU-145; experiment: Cell cycle arrest in human DU145 cells assessed as accumulation at sub-G1 phase at 2 uM after 48 hrs by propidium iodide staining-based flow cytometric analysis (reference value: 0.17%); format: functional
[14] = test system: DU-145; experiment: Cell cycle arrest in human DU145 cells assessed as accumulation at G2/M phase at 2 uM after 48 hrs by propidium iodide staining-based flow cytometric analysis (reference value: 15%); format: functional

SMILES | IC50 [1] [µM] | IC50 [2] [µM] | IC50 [3] [µM] | IC50 [4] [µM] | inhibition [5] | Activity [6] [%] | IC50 [7] [µM] | Activity [8] | inhibition [9] | Activity [10] [%] | Activity [11] | Activity [12] [%] | Activity [13] [%] | Activity [14] [%]
COc1cccc2c1C(=O)c1c(O)c3c(c(O)c1C2=O)C[C@@](O)(C(=O)CO)C[C@@H]3O[C@H]1C[C@H](N)[C@H](O)[C@H](C)O1 [DOXORUBICIN] | 0.9 | 3.82 | 4.06 |  |  |  |  |  |  |  |  |  |  | 
COc1cc([C@@H]2c3cc4c(cc3[C@H](OC(=O)C#Cc3ccccc3)[C@H]3COC(=O)[C@H]23)OCO4)cc(OC)c1OC | 1.12 | 1.08 | 0.79 | 1.81 | Active | 53.8 | 1.23 | Active | Active |  |  |  |  | 
COc1cc([C@@H]2c3cc4c(cc3[C@H](OC(=O)c3ccc([N+](=O)[O-])cc3)[C@H]3COC(=O)[C@H]23)OCO4)cc(OC)c1OC | 2.06 | 8.83 | 1.1 | 0.74 | Active | 64 | 1.56 |  |  | 41.81 | Dose-dependent effect | 4.24 | 40.72 | 13.23
COc1ccc(/C(=C\c2ccc(OC)c(OC)c2)C(=O)O[C@H]2c3cc4c(cc3[C@@H](c3cc(OC)c(OC)c(OC)c3)[C@H]3C(=O)OC[C@@H]32)OCO4)cc1 | 15.5 | 51.2 | 8.32 | 18.2 |  |  | 17.4 |  |  |  |  |  |  | 
COc1cc([C@@H]2c3cc4c(cc3[C@H](OC(=O)c3cc([N+](=O)[O-])ccc3N)[C@H]3COC(=O)[C@H]23)OCO4)cc(OC)c1OC | 13.7 | 27.3 | 11.2 | 22.2 |  |  | 19.7 |  |  |  |  |  |  | 
COc1ccc(/C(=C\c2ccc(OC)c(OCc3ccccc3)c2)C(=O)O[C@H]2c3cc4c(cc3[C@@H](c3cc(OC)c(OC)c(OC)c3)[C@H]3C(=O)OC[C@@H]32)OCO4)cc1OC | 14.3 | 22.9 | 33 | 17.5 |  |  | 17.6 |  |  |  |  |  |  | 
COc1ccc(/C(=C\c2cc(OC)c(OC)c(OC)c2)C(=O)O[C@H]2c3cc4c(cc3[C@@H](c3cc(OC)c(OC)c(OC)c3)[C@H]3C(=O)OC[C@@H]32)OCO4)cc1 | 15.9 | 23.7 | 38.1 | 13 |  |  | 23.3 |  |  |  |  |  |  | 
COc1ccc(/C(=C\c2ccc(OCc3ccccc3)c(OC)c2)C(=O)O[C@H]2c3cc4c(cc3[C@@H](c3cc(OC)c(OC)c(OC)c3)[C@H]3C(=O)OC[C@@H]32)OCO4)cc1OC | 15.9 | 28 | 13.4 | 24.9 |  |  | 20.3 |  |  |  |  |  |  | 
COc1ccc(/C=C\c2cc(OC)c(OC)c(OC)c2)cc1O |  |  |  |  |  | 69.4 |  |  |  |  |  |  |  | 
CC#CC(=O)O[C@H]1c2cc3c(cc2[C@@H](c2cc(OC)c(OC)c(OC)c2)[C@H]2C(=O)OC[C@@H]21)OCO3 | 1 | 1.47 | 1.71 | 1.03 | Active | 62.1 | 1.35 | Active | Active |  |  |  |  | 
COc1cc([C@@H]2c3cc4c(cc3[C@H](OC(=O)c3ccccc3Cl)[C@H]3COC(=O)[C@H]23)OCO4)cc(OC)c1OC | 17.1 | 24.4 | 11.2 | 34.5 |  |  | 19.5 |  |  |  |  |  |  | 
COc1ccc(C(=O)O[C@H]2c3cc4c(cc3[C@@H](c3cc(OC)c(OC)c(OC)c3)[C@H]3C(=O)OC[C@@H]32)OCO4)c([N+](=O)[O-])c1 | 17.6 | 26.5 | 14.4 | 25.8 |  |  | 15.3 |  |  |  |  |  |  | 
COc1cc([C@@H]2c3cc4c(cc3[C@H](O)[C@H]3COC(=O)[C@H]23)OCO4)cc(OC)c1OC [PODOFILOX] |  |  | > 100 |  |  | 66.6 |  |  |  |  |  |  |  | 
COc1ccc(/C=C(/C(=O)O[C@H]2c3cc4c(cc3[C@@H](c3cc(OC)c(OC)c(OC)c3)[C@H]3C(=O)OC[C@@H]32)OCO4)c2ccc(OC)c(OC)c2)cc1OC | 2.02 | 5.13 | 1.4 | 0.71 | Active | 46.8 | 1.74 |  |  | 22.39 | Dose-dependent effect | 1.68 | 73 | 2.94
COc1ccc(/C(=C\c2cc(OC)c(OC)c(OC)c2)C(=O)O[C@H]2c3cc4c(cc3[C@@H](c3cc(OC)c(OC)c(OC)c3)[C@H]3C(=O)OC[C@@H]32)OCO4)cc1OC | 11.8 | 23.7 | 37.8 | 10.4 |  |  | 22.9 |  |  |  |  |  |  | 
COc1cc([C@@H]2c3cc4c(cc3[C@H](OC(=O)c3cccc(OC)c3OC)[C@H]3COC(=O)[C@H]23)OCO4)cc(OC)c1OC | 13.2 | 48.6 | 50.4 | 24.3 |  |  | 21 |  |  |  |  |  |  | 
COc1cccc(/C(=C\c2cc(OC)c(OC)c(OC)c2)C(=O)O[C@H]2c3cc4c(cc3[C@@H](c3cc(OC)c(OC)c(OC)c3)[C@H]3C(=O)OC[C@@H]32)OCO4)c1 | 14.1 | 27.3 | 18.4 | 24.9 |  |  | 20.1 |  |  |  |  |  |  | 
COc1ccc(/C(=C\c2ccc(OC(C)=O)c(OC)c2)C(=O)O[C@H]2c3cc4c(cc3[C@@H](c3cc(OC)c(OC)c(OC)c3)[C@H]3C(=O)OC[C@@H]32)OCO4)cc1OC | 2.3 | 10.9 | 1.06 | 0.91 | Active | 51.2 | 1.83 |  |  | 42.8 | Dose-dependent effect | 5.69 | 38.88 | 12.63
